{
  "source": "ChEMBL document CHEMBL1143045",
  "about": "“Tricyclic isoxazolines: identification of R226161 as a potential new antidepressant that combines potent serotonin reuptake inhibition and alpha2-adrenoceptor antagonism” (Bioorg Med Chem, 2007)",
  "key": {"[1]": {"target": "T1, Alpha-2A adrenergic receptor (Homo sapiens, UniProt P08913)", "T1 sequence (P08913 whole entry)": "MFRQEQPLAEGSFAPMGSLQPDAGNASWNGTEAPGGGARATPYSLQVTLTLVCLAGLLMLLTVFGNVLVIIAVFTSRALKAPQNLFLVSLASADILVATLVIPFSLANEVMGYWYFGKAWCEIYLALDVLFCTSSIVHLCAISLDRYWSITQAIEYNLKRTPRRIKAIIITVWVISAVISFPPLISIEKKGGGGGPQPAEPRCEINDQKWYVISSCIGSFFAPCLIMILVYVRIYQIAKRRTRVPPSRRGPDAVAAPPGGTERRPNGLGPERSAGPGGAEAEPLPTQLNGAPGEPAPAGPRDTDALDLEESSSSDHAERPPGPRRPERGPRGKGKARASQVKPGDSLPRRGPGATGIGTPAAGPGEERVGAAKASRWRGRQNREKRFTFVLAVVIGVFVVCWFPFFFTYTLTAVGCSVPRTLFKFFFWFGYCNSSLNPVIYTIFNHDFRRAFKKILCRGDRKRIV", "test": "Displacement of [3H]rawolscine from human cloned adrenergic alpha2A receptor transfected in CHO cells", "format": "cell-based"}, "[2]": {"target": "T2, Alpha-2B adrenergic receptor (Homo sapiens, UniProt P18089)", "T2 sequence (P18089 whole entry)": "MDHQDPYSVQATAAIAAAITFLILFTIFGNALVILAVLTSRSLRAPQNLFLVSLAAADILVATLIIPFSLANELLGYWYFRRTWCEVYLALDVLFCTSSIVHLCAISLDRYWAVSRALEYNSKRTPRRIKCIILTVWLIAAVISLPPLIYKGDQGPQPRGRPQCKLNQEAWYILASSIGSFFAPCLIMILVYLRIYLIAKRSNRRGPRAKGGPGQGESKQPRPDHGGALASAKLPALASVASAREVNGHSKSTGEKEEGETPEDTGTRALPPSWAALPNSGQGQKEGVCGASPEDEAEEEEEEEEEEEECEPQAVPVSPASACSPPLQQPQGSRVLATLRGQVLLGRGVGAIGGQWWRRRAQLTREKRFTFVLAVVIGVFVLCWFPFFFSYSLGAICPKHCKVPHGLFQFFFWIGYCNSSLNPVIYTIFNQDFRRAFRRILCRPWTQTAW", "test": "Displacement of [3H]rawolscine from human cloned adrenergic alpha-2B receptor transfected in CHO cells", "format": "cell-based"}, "[3]": {"target": "T3, Alpha-2C adrenergic receptor (Homo sapiens, UniProt P18825)", "T3 sequence (P18825 whole entry)": "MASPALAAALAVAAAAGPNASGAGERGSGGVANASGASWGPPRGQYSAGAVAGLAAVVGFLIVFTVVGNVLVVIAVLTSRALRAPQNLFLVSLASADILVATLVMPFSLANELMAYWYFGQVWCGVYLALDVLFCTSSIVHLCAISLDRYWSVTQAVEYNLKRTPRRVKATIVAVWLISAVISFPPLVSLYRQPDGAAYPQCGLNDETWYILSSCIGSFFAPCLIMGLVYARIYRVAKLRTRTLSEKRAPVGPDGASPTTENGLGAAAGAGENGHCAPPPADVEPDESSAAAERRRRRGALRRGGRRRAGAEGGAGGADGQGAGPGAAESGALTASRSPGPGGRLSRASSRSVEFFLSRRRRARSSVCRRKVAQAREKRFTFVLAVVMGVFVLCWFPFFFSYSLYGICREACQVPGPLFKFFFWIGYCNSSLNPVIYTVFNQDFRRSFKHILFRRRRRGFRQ", "test": "Displacement of [3H]rawolscine from human cloned adrenergic Alpha-2C receptor transfected in CHO cells", "format": "cell-based"}, "[4]": {"target": "Sodium-dependent serotonin transporter (Homo sapiens, UniProt P31645)", "sequence (P31645 whole entry)": "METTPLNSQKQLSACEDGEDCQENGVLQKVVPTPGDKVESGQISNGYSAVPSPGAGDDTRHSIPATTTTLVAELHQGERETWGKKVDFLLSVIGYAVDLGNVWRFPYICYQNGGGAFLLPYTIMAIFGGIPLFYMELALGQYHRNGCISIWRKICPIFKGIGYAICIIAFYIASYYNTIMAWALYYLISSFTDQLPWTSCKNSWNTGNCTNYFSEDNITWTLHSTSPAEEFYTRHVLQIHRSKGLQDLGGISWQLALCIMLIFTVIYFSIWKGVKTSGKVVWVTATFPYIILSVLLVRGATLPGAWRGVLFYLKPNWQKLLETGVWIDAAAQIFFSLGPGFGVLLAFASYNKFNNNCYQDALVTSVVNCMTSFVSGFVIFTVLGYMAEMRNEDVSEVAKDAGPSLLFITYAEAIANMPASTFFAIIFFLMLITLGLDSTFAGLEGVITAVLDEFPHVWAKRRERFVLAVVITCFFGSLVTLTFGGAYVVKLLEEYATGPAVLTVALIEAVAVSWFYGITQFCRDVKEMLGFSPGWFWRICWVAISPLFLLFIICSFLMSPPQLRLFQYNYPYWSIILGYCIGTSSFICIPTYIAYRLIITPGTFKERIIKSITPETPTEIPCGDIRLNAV", "test": "Displacement of [3H]paroxetine from human cloned 5HTT receptor transfected in CHO cells", "format": "cell-based"}, "[5]": {"target": "Adrenergic receptor alpha-2 (Rattus norvegicus) (UniProt P22086+P19328+P22909)", "test": "Reversal of medetomidine-induced loss of righting reflex in sc dosed Wistar rat after 1hr", "format": "functional, organism-based"}, "[6]": {"target": "Sodium-dependent serotonin transporter (Rattus norvegicus) (UniProt P31652)", "sequence (P31652 whole entry)": "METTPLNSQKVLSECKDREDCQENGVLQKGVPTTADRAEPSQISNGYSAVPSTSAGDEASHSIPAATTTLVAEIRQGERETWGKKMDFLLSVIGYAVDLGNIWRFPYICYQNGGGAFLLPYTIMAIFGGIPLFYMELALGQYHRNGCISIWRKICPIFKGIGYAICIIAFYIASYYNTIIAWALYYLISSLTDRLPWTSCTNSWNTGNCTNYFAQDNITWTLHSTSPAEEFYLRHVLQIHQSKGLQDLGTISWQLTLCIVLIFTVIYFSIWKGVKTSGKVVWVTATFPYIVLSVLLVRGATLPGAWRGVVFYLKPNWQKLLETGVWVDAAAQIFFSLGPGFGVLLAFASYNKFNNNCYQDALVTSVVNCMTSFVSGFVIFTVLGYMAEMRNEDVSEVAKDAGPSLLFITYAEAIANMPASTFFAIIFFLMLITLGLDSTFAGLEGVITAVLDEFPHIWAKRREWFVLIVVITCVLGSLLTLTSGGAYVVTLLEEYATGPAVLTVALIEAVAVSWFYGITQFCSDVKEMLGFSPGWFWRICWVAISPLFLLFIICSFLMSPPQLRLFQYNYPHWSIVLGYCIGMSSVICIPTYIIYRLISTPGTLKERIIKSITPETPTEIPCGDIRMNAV", "test": "Antagonism of p-chloroamphetamine-induced excitation in sc dosed Wistar rat after 1 hr", "format": "functional, organism-based"}},
  "data": [
    {"smiles": "COc1cc2c(cc1OC)C1=NOC(CN3CCN(C/C=C/c4ccc(F)cc4)CC3)C1CO2", "note": "(cis isomer)", "values": [
      {"measurement": "Ki", "setting": "[1]", "result": 117, "unit": "nM"},
      {"measurement": "Ki", "setting": "[2]", "result": 162, "unit": "nM"},
      {"measurement": "Ki", "setting": "[3]", "result": 72, "unit": "nM"},
      {"measurement": "Ki", "setting": "[4]", "result": 14, "unit": "nM"}
    ]},
    {"smiles": "COc1cc2c(cc1OC)C1=NOC(CN3CCN(C/C=C/c4ccc(F)cc4)CC3)C1CO2", "note": "(racemic) [listing 1 of 2 here]", "values": [
      {"measurement": "Ki", "setting": "[1]", "result": 9, "unit": "nM"},
      {"measurement": "Ki", "setting": "[2]", "result": 25, "unit": "nM"},
      {"measurement": "Ki", "setting": "[3]", "result": 23, "unit": "nM"},
      {"measurement": "Ki", "setting": "[4]", "result": 5.6, "unit": "nM"}
    ]},
    {"smiles": "COc1cc2c(cc1OC)C1=NO[C@@H](CN3CCN(C/C(C)=C/c4ccc(F)cc4)CC3)[C@@H]1CO2", "note": "(racemic) [listing 1 of 2 here]", "values": [
      {"measurement": "Ki", "setting": "[2]", "result": 8.4, "unit": "nM"}
    ]},
    {"smiles": "COc1cc2c(cc1OC)C1=NOC(CN3CCN(C/C(C)=C/c4ccccc4)CC3)C1CN2", "note": "(racemic) [listing 1 of 2 here]", "values": [
      {"measurement": "Ki", "setting": "[2]", "result": 12, "unit": "nM"},
      {"measurement": "Ki", "setting": "[3]", "result": 0.1, "unit": "nM"},
      {"measurement": "Ki", "setting": "[4]", "result": 8.9, "unit": "nM"}
    ]},
    {"smiles": "COc1cc2c(cc1OC)C1=NOC(CN3CCN(C/C(C)=C/c4ccccc4)CC3)C1CN2", "note": "(racemic) [listing 2 of 2 here]", "values": [
      {"measurement": "ED50", "setting": "[5]", "result": 0.2, "unit": "mg/kg"},
      {"measurement": "ED50", "setting": "[6]", "result": 2.2, "unit": "mg/kg"}
    ]},
    {"smiles": "COc1cc2c(cc1OC)C1=NOC(CN3CCN(C/C=C/c4ccc(F)cc4)CC3)C1CO2", "note": "(racemic) [listing 2 of 2 here]", "values": [
      {"measurement": "ED50", "setting": "[5]", "result": 0.1, "unit": "mg/kg"},
      {"measurement": "ED50", "setting": "[6]", "result": 4.7, "unit": "mg/kg"}
    ]},
    {"smiles": "COc1cc2c(cc1OC)C1=NO[C@@H](CN3CCN(C/C(C)=C/c4ccc(F)cc4)CC3)[C@@H]1CO2", "note": "(racemic) [listing 2 of 2 here]", "values": [
      {"measurement": "ED50", "setting": "[5]", "result": 0.1, "unit": "mg/kg"}
    ]},
    {"smiles": "COc1cc2c(cc1OC)C1=NOC(CN3CCN(C/C=C/c4ccc(F)cc4)CC3)C1CO2", "note": "(single isomer, unassigned; (+))", "values": [
      {"measurement": "Ki", "setting": "[1]", "result": 54, "unit": "nM"},
      {"measurement": "Ki", "setting": "[2]", "result": 14, "unit": "nM"},
      {"measurement": "Ki", "setting": "[3]", "result": 4.5, "unit": "nM"},
      {"measurement": "Ki", "setting": "[4]", "result": 2.1, "unit": "nM"}
    ]}
  ]
}
